# Results reported in US20050169912A1, “Immunogenic peptides and uses thereof” (priority 2001, published 2005).
# Tested on: antibody in sera from Helicobacter pylori infected patients and healthy control subjects
# Assay: Immunoassay detecting serum antibodies specific for individual peptide antigens
# Assay type: binding, human
# Settings: for functional specificity for the H. pylori protein: candidate sequences tested, FIGS. 4 and 5; for ability of peptide to identify Helicobacter pylori infected individuals: 30 infected patients vs 30 healthy controls, threshold control mean plus 2.5 standard deviations
# Text: 1. Possible Outcomes for Peptides Screened as Antigens in Serum Antibody Assays:
# 1. A positive result indicating the presence of a peptide-specific antibody in patient biological fluid samples, absent evidence of antibody in samples from subjects without the microorganism or autoimmune disease (FIG. 3) indicates the tested peptide is a specific peptide (immunogen) for a targeted protein.
# 3. No difference in positive antibody levels between patients and subjects without disease.
# 2. Immunoassay Method 1: Used to Detect Serum IgA, IgD, IgE, IgG, and IgM Antibodies Specific for Individual Peptide Antigens
# Peptide solution: 0.06 μg/mL peptide dissolved in 20 mM Tris chloride, pH 7.4, containing 600 mM sodium chloride, 30 mg/mL polyethylene glycol 4000, 1 mm ethylenediaminetetraacetic acid, 1 mM ethylene glycol-bis(§-aminoethyl ether)N,N,N′,N′-tetraacetic acid, 0.5 mg/mL triton x-405 and 0.2 mg/mL thimerosal.
# Control peptide solution: 0.013 μg/mL control peptide dissolved in 20 mM Tris chloride, pH 7.4, containing 600 mM sodium chloride, 30 mg/mL polyethylene glycol 4000, 1 mm ethylenediaminetetraacetic acid, 1 mM ethylene glycol-bis(§-aminoethyl ether)N,N,N′,N′-tetraacetic acid, 0.5 mg/mL triton x-405 and 0.2 mg/mL thimerosal.
# Conjugate solution: 0.100 μg/mL alkaline phosphatase conjugated polyclonal goat anti human IgG dissolved in 20 mM Tris-HCL, pH 7.40, with 600 mM sodium chloride, 30.0 mg/mL peg-4000, 3.0 mg/mL BSA, 0.5 mg/mL triton x-405 and 0.20 mg/mL thimerosal.
# Substrate solution: 25.2 μg/mL 4-methylumbelliferyl phosphate dissolved in 180 mM 2-amino-2-methyl-1-propanol, pH 9.50, containing 123 μM magnesium chloride.
# Serum preparation: • 1. Add 100 μl serum to 15 neutravidin^a coated paper discs in a suitably sized test tube. • 2. Incubate with gentle mixing at ambient temperature for 16-20 hours. • 3. Add 7.9 mL of serum diluent and mix gently for 30 minutes. • 4. Vortex the tube gently to completely release the serum from the discs. • 5. Remove the treated serum from the discs and transfer it to a suitable storage tube. • 6. Store the treated serum at 4 EC.
# Assay procedure: • 1. Two days before assay, aspirate the storage solution from the NeutrAvidin^a coated white microtiter plate and add 200 μl plate blocking solution to each well. • 2. Cover the plate and incubate at ambient temperature for 16-20 hours. • 3. One day before assay. Wash the blocked plate three times with plate wash buffer, approximately 275 μl per well per wash. Aspirate the final wash and add 100 μl peptide solution or 100 μl control peptide solution to the appropriate wells of the plate. • 4. Cover the plate and incubate with gentle mixing at ambient temperature for 16-20 hours. • 5. Day of assay, wash the blocked plate three times with plate wash buffer, approximately 275 μl per well per wash. Aspirate the final wash and add 100 μl treated serum to the appropriate wells of the plate. • 6. Cover the plate and incubate at 25 EC for 2 hours. • 7. Wash the blocked plate six times with plate wash buffer, approximately 275 μl per well per wash. Aspirate the final wash and add 100 μl conjugate solution to each assay well. • 8. Cover the plate and incubate at 25 EC for 1.5 hours. • 9. Wash the blocked plate six times with plate wash buffer, approximately 275 μl per well per wash. Aspirate the final wash and add 100 μl substrate solution to each assay well. • 10. Read the plate at 30 and 60 minutes in a fluorescence microtiter plate reader set at 365 nm excitation and 450 nm emission. 3. Biotinylation of Human Serum Albumin
Sequence,functional specificity for the H. pylori protein,"detection of fluids from infected persons (Example 1, FIGS. 3-5)","Helicobacter pylori infected individuals identified by the peptide (sera from 30 H. pylori infected patients, positive/negative threshold control mean)","control sera identified as positive for the peptide (sera from 30 healthy control subjects, antibodies to the peptide)",ability of peptide to identify Helicobacter pylori infected individuals
KNLESYQKDA,not functionally specific,–,–,–,–
MQEIDKKLTQKN,–,detected fluids from infected persons,three,no control sera were incorrectly identified as positive,–
QKDAKECKGKRN,–,–,–,–,does not serve to identify Helicobacter pylori infected individuals
QKDAKELKGKRN,not functionally specific,–,–,–,does not serve to identify Helicobacter pylori infected individuals
